One series has as its target T1, CYP2D6 (Homo sapiens, UniProt P10635).
T1 construct: host or cells: human liver microsomes (one value) / recombinant CYP enzyme (other value)
In words: Conversion of P8-D6 by recombinant CYP2D6. Type of series: in vitro ADME. As for the experimental part: P8-D6 N-oxide was the most common metabolite for all incubations with subcellular fractions from the homogenized tissue. According to the detected MS-MS fragments (supplied as Supporting Information Chapter 2), it resulted from N-oxygenation of the nitrogen at the side chain since the unmodified fragment of P8-DO (m/z = 414.1) was detected. Furthermore, the detected fragment at m/z = 440.1 is most likely a carbocation at the remaining ethyl chain after splitting off the dimethylamine N-oxide further strengthening the theory of selectively forming this specific N-oxide. In addition, no relevant chemical shifts in the aromatic range of the ^1H NMR compared to P8-D6 and mono were observed (supplied as Supporting Information Chapter 2). Thus, no chemical modifications can have occurred on the aromatic rings, and all changes must therefore affect the side chain. […] To determine which enzymes were responsible for the conversion, seven recombinant CYP 450 isoenzymes recommended by the FDA’s “Guidance for Industry” and human FMO3 were used.
Among the recombinant enzymes, P8-D6 is mostly metabolized to P8-D6 mono by CYP3A4 (0.34%, significant compared to any other enzyme, p < 0.0001) and 2D6 (0.17%, significant compared to 2C8, 1A2, 2C19, and 2C9, p < 0.005) (Figure E). […]

A further series has as its system OvCar8 cells. Description: 2D monolayer apoptosis (caspase activity) assay (ApoLive-Glo). It is filed as cell-based, human. As to conditions: 48 h. As for the experimental part: The efficacy of metabolites can have a significant impact on the efficacy of the drug. […] The therapeutic effect of P8-D6 mono and P8-D6 N-oxide was investigated in vitro in human ovarian cancer 2D monolayers and 3D spheroids (Figures and ). 48 h of treatment of the ovarian cancer cell lines (OvCar8, A2780, Igrov-1) with P8-D6 mono and P8-D6 N-oxide was compared to P8-D6 and cisplatin (study preparation scheme supplied as Figure S5). Both metabolites decreased viability in ovarian cancer cells in a 2D monolayer (Figure A, supplied as Figure S3 A,C).
The human ovarian cancer cell lines OvCar8, Igrov-1, and A2780, purchased from ATCC, were maintained in RPMI1640 medium, including L-glutamine supplemented with 10% fetal bovine serum and 60 IU/mL penicillin–streptomycin. Cells were grown at 37 °C and 5% CO2 in a humidified incubator and subcultivated at a confluency of 70–80%. […]
For the measurements of viability and apoptosis, cells of approximately 8000/well were seeded in a Corning No. 3903 plate and treated with the corresponding drugs for 48 h. […] Fluorescence and luminescence units were measured by using a microplate multimode reader (Spark, Tecan). Relative caspase activity was calculated as caspase activity divided by viability (normalized to control). […]

Another series deals with OvCar8 spheroids. Description: 3D spheroid viability (RealTime-Glo). It is filed as cell-based, human. As to conditions: for IC50: Homo sapiens, OVCAR-8, OvCar8 3D spheroids, 48 h. As for the experimental part:
Tumor complexity is represented more realistically in 3D spheroid models than in 2D monolayer models.
OvCar8 cells (8000/well) were seeded into an Ultra-Low-Attachment plate (Corning #4520) and grown for 96 h. Then, spheroids were treated with the drugs for 48 h. Cell cytotoxicity was assessed using the CellTox Green Cytotoxicity Assay (Promega #G8731) 48 h after treatment with NYONE ([…], 485Ex/520Em). Filters: BFEx/GreenEm (530/43 nm); BlueEx (475/28 nm)/GreenEm (530/43 nm). Viability and apoptosis were determined by RealTime-Glo (460Em) (Promega #G9711) and caspase-Glo 3/7 (565Em) (Promega #G8090) according to the manufacturer’s instructions using a microplate reader (Spark, Tecan). Relative caspase activity: caspase activity divided by the viability (normalized to control). For live-dead staining, cells were grown and treated as described above. Then, 80% of the medium was removed and replaced with propidium iodide (PI) (15 μM), calcein-AM (0.2 μM), and Hoechst 33342 (1.8 μM) in medium for 3 h and imaged by NYONE ([…]). Filters: BFEx/GreenEm(530/43 nm); Hoechst 33342: UVEx (377/50 nm)/BlueEm (452/45 nm); calcein-AM: BlueEx (475/28 nm)/GreenEm (530/43 nm); propidium iodide: LimeEx(562/40 nm)/RedEm(628/32 nm). All experiments were performed in biological triplicates. PBS was used as the negative control, and cisplatin and P8-D6 as the positive control.

The conditions of series [1]: mice; ref not given; cited from earlier work.

The structures appear in SMILES notation.

T1 sequence (P10635 whole entry): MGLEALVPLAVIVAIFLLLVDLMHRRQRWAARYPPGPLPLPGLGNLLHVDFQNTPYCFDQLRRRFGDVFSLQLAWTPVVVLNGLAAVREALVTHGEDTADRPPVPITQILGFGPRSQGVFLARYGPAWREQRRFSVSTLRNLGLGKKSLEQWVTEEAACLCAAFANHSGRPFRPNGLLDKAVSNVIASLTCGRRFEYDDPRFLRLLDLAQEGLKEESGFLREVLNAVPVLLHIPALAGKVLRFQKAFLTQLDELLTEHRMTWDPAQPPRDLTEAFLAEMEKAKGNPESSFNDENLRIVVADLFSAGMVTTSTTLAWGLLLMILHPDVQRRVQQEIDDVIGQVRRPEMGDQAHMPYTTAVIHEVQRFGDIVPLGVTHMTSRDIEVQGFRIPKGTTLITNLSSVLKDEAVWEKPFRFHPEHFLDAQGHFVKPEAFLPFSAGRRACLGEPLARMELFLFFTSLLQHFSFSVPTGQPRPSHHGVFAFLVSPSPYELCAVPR

For orientation: IC50 means the point on the concentration scale where inhibition reaches its midpoint. A higher IC50 goes with lower potency. As for `CNCCOc1nc2c3cnccc3cc(-c3cc(OC)c(OC)c(OC)c3)c2c2ccncc12` [P8-D6 mono], the “formation of metabolite from P8-D6” value at CYP2D6 was determined as 0.17%. Also, the apoptosis induction result in the series on OvCar8 cells is reported as “comparable to that of P8-D6”. The molecule also came in with an IC50 with OvCar8 spheroids of 240 nM.
Take `COc1cc(-c2cc3ccncc3c3nc(OCC[N+](C)(C)[O-])c4cnccc4c23)cc(OC)c1OC` [P8-D6 N-oxide]: the “apoptosis rate higher than cisplatin” value in the series on OvCar8 cells (10 μM) worked out at 3.5 fold. For the same molecule, in the series on OvCar8 spheroids (3D spheroids), the “efficacy increased compared to cisplatin” value was found to be 18 fold and the “efficacy reduced compared to P8-D6 mono” value was 3 fold. This molecule gave an IC50 with OvCar8 spheroids of 720 nM.
Take `COc1cc(-c2cc3ccncc3c3[nH]c(=O)c4cnccc4c23)cc(OC)c1OC` [P8-DO]: at CYP2D6, the “formation of metabolite from P8-D6” value is on record as 0.09%.
Turning to `COc1cc(-c2cc3ccncc3c3nc(OCCN(C)C)c4cnccc4c23)cc(OC)c1OC` [P8-D6, 6-(N,N-dimethyl-2-aminoethoxy)-11-(3,4,5-trimethoxyphenyl)-pyrido[3,4-c][1,9]-phenanthroline], the maximum tolerated dose in series [1] is reported as 5 mg/kg BW.

The values above are taken from paper PMC11997890, “In Vivo and In Vitro Pharmacokinetic Studies of a Dual Topoisomerase I/II Inhibitor” (ACS Pharmacology & Translational Science, 2025).
